Measurements: PubChem BioAssay (NCI)
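Dose response: 5 concentrations. Exposure: 48 h. Format: 96-well plates. Endpoint: linear interpolation; highest concentration if not reached. The concentration for full growth arrest is given as TGI.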

Columns and labels:
Assay in all cases: DTP human tumour cell line panel, 48 h
[1] = tested on: HCC-2998 colon
[2] = tested on: RXF 393 renal
[3] = tested on: SNB-75 CNS
[4] = tested on: CCRF-CEM leukemia
[5] = tested on: SF-539 CNS
[6] = tested on: COLO 205 colon
[7] = tested on: HS 578T breast
[8] = tested on: HCT-15 colon
[9] = tested on: SNB-19 CNS
[10] = tested on: IGROV1 ovarian
[11] = tested on: MCF7 breast
[12] = tested on: K-562 leukemia
[13] = tested on: LOX IMVI melanoma
[14] = tested on: SK-MEL-2 melanoma
[15] = tested on: OVCAR-4 ovarian
[16] = tested on: KM12 colon
[17] = tested on: HOP-92 NSCLC

Cn1c(=O)oc2cc(C(=O)CN3CCN(Cc4ccc5c(c4)OCO5)CC3)c(Cl)cc21
TGI [1]: > 100 µM | TGI [2]: > 100 µM | TGI [3]: > 100 µM | TGI [4]: > 100 µM | TGI [5]: > 100 µM | TGI [6]: > 100 µM | TGI [7]: > 100 µM | TGI [8]: > 100 µM | TGI [9]: > 100 µM | TGI [10]: > 100 µM | TGI [11]: > 100 µM | TGI [12]: > 100 µM | TGI [13]: > 100 µM | TGI [14]: > 100 µM

CC1(C)OC[C@@H]([C@H](C=O)OCc2ccccc2)O1
TGI [15]: > 100 µM | TGI [3]: > 100 µM | TGI [4]: > 100 µM | TGI [16]: > 100 µM | TGI [6]: > 100 µM | TGI [7]: > 100 µM | TGI [8]: > 100 µM | TGI [9]: > 100 µM | TGI [10]: > 100 µM | TGI [17]: > 100 µM | TGI [11]: > 100 µM | TGI [12]: > 100 µM | TGI [13]: > 100 µM | TGI [14]: > 100 µM

CC(=O)OC12c3ccccc3C(c3ccccc31)C1C(=O)N(Nc3ccccc3)C(=O)C12 (stereo not given)
TGI [1]: > 100 µM | TGI [2]: > 100 µM | TGI [15]: > 100 µM | TGI [3]: > 100 µM | TGI [4]: > 100 µM | TGI [5]: > 100 µM | TGI [16]: > 100 µM | TGI [6]: > 100 µM | TGI [7]: > 100 µM | TGI [8]: > 100 µM | TGI [9]: > 100 µM | TGI [10]: > 100 µM | TGI [11]: > 100 µM | TGI [12]: > 100 µM | TGI [13]: > 100 µM

CC1(C)OP(=O)(c2ccccc2)C=C1Br (stereo not given)
TGI [1]: > 100 µM | TGI [15]: > 100 µM | TGI [3]: > 100 µM | TGI [5]: > 100 µM | TGI [16]: > 100 µM | TGI [6]: > 100 µM | TGI [7]: > 100 µM | TGI [8]: > 100 µM | TGI [9]: > 100 µM | TGI [10]: > 100 µM | TGI [17]: > 100 µM | TGI [12]: > 100 µM | TGI [13]: > 100 µM | TGI [14]: > 100 µM

CC1(C)CC(=O)c2c(nc3c(ccc4ccccc43)c2-c2ccc(NC(=O)CCCCCCCCC(=O)Nc3ccc(-c4c5c(nc6c4ccc4ccccc46)CC(C)(C)CC5=O)cc3)cc2)C1
TGI [3]: > 100 µM | TGI [4]: > 100 µM | TGI [5]: > 100 µM | TGI [16]: > 100 µM | TGI [6]: > 100 µM | TGI [7]: > 100 µM | TGI [9]: > 100 µM | TGI [10]: > 100 µM | TGI [11]: > 100 µM | TGI [12]: > 100 µM | TGI [13]: > 100 µM | TGI [14]: > 100 µM

CC1(C)CCCCC1/C=C/C(CC(O)(C(F)(F)F)C(F)(F)F)=N\Nc1ccc([N+](=O)[O-])cc1[N+](=O)[O-] (stereo not given)
TGI [1]: > 100 µM | TGI [2]: 1.85 µM | TGI [15]: 18.7 µM | TGI [3]: 11.7 µM | TGI [4]: 4.91 µM | TGI [5]: 0.973 µM | TGI [16]: 9.75 µM | TGI [6]: 10.8 µM | TGI [7]: 40.6 µM | TGI [8]: > 100 µM | TGI [9]: 19 µM | TGI [10]: 15.8 µM | TGI [11]: 5.42 µM | TGI [12]: 11.1 µM | TGI [13]: 10.6 µM | TGI [14]: 30 µM

Nc1ccc(-c2nnc(-c3c(Cl)c(Cl)c(Cl)c(Cl)c3-c3nc4ccc(C(=O)c5ccccc5)cc4[nH]3)o2)cc1
TGI [2]: 43.2 µM | TGI [15]: > 100 µM | TGI [3]: 69.2 µM | TGI [4]: 70.3 µM | TGI [5]: 29.3 µM | TGI [16]: > 100 µM | TGI [6]: 50.2 µM | TGI [7]: > 100 µM | TGI [8]: 61 µM | TGI [9]: 67.4 µM | TGI [10]: > 100 µM | TGI [17]: > 100 µM | TGI [11]: 76.2 µM | TGI [12]: 31.6 µM | TGI [13]: > 100 µM | TGI [14]: 88.3 µM

C=CC(C)(C)c1c(OC)oc2ccc(OC)c(C)c2c1=O
TGI [1]: > 100 µM | TGI [3]: > 100 µM | TGI [4]: > 100 µM | TGI [5]: > 100 µM | TGI [16]: > 100 µM | TGI [6]: > 100 µM | TGI [7]: > 100 µM | TGI [8]: > 100 µM | TGI [9]: > 100 µM | TGI [10]: > 100 µM | TGI [11]: > 100 µM | TGI [12]: > 100 µM | TGI [13]: > 100 µM | TGI [14]: > 100 µM
